Assay results: US9365851B2, “Spalt-like transcription factor 4 (SALL4) and uses thereof” (National University of Singapore, priority 2011, dated 2016)

Columns and labels:
HDAC1 and HDAC2 = experiment: Anti-FITC pull-down of FITC-labeled peptides from SNU-398 nuclear extracts, Western blot for HDAC1/HDAC2; type: binding, human; conditions: anti-FITC IP
Method: For the pull down assay FITC-labeled version of the peptides and anti-FITC antibody (Santa Kruz, Calif.) was used. The antibody was immobilized covalently on the surface of Dinabeads (Invitrogen). The magnetic beads were than used in the pull down reaction according to the instruction of the manufacturer with the following minor modifications: 1 mM DTT, 0.1 mM NaF, 1 mM PMSF, 1 mM Na orthovanadate, and 1:100 final dilution of protease inhibitor, (Sigma Co.) was added to the extraction buffer. The NaCl concentration was optimized to 100 mM. Eluted proteins were submitted to Western blotting using standard procedure and the protein bands were visualized using antibodies to HDAC1 and 2 (Sigma)
(§1) Next tested was whether this wt 12-AA could compete with SALL4 in interacting with NuRD. A hepatocellular carcinoma cell line SNU-398 with abundant SALL4 expression was chosen for the following groups of experiences. Whether the wt 12-AA or its control (Mut and Scr) can bind to HDAC1 and HDAC2, the two NuRD components, was first evaluated. […] The histone deacetylase activity of the peptide pull-down complex was then measured using a Fluorescent Assay kit (Active Motif) (FIG. 1D). The active enzymatic activity of the HDACs tested by this assay corresponds to the amount of the HDAC proteins in the sample.
First evaluated was whether the wild type peptide or the mutant or scrambled controls could bind to HDAC1 and HDAC2, which comprise part of the NuRD complex 38. The hepatocellular carcinoma (HCC) cell line SNU-398 expresses abundant amount of SALL4 and was chosen for the following 9 experiments. […] To test this possibility, the histone deacetylase activity of the peptide pull-down complex was measured using a fluorescent assay kit (FIG. 8C). The active enzymatic activity of the HDACs tested by this assay corresponded to the amount of the HDAC proteins in the sample.

HDAC = HDAC activity assay of peptide pull-down complex (SNU-398 nuclear extracts); type: biochemical, human; conditions: compared to IgG control
Method: Assay was performed with the Fluorescent HDAC Assay Kit (Active Motif) having the following modifications: Following the pull down described in Western Blotting section the proteins bound to the beads were eluted in buffer containing 20 mM HEPES (pH 7.5) 350 mM NaCl, 20% glycerol, 1% Igepal CA-630, 1 mM MgCl2, 5 mM DTT and Protease inhibitors (Sigma). The eluates were used as an HDAC enzyme source in an enzymatic reaction for 2 h at 37 C. The HDAC reactions were performed twice on various samples, and each time in triplicate.
as §1, with “The active enzymatic activity of the HDACs tested by this assay corresponds to the amount of the HDAC proteins in the sample.” left out
First evaluated was whether the wild type peptide or the mutant or scrambled controls could bind to HDAC1 and HDAC2, which comprise part of the NuRD complex 38. […] To test this possibility, the histone deacetylase activity of the peptide pull-down complex was measured using a fluorescent assay kit (FIG. 8C). […]

PTEN promoter region = experiment: ChIP-qPCR of H3 acetylation at the PTEN promoter in SNU-398 cells; type: cell-based, human; conditions: SNU-398, ChIP-qPCR
From the text: FIGS. 9A-9E: The wild type peptide blocks SALL4 repression of PTEN. (9A) Flow cytometry analysis on SNU-398 cells treated with Pep-1 carrier peptide alone (top panel), wild type peptide alone (middle panel), or Pep-1 carrier+peptide (lower panel). […] (9B) Confocal images of the distribution of FITC-labeled peptide in SNU-398 cells treated as shown in (9A). (9C) The endogenous SALL4 interaction with HDAC is blocked by wild type (wt) but not scrambled (scr) peptide. SALL4 was immunoprecipitated from SNU-398 nuclear extracts (1×10^6 cells) pre-treated with wild type or scrambled peptides as indicated using an anti-SALL4 antibody. Immunoprecipitates were analyzed by Western blot using HDAC1 (top panel) or SALL4 (lower panel) antibodies. […] Equal amount of SALL4 protein was present in all samples. In Lane 4 (“10% input”), 10% of the amount of nuclear extract used in lanes 1-3 was subjected to Western blot analysis without immunoprecipitation. […] Enrichment with control IgG was set at 1.
Whether this peptide can reverse the repressive effect of SALL4 on its target genes was then tested. Pten was chosen as an example since it is one of genes implicated in SALL4-mediated leukemogenesis. In addition, it was previously reported that SALL4 and NuRD component HDAC2 shared the same binding site at a specific Pten promoter region identified by a ChIP assay. When SALL4 was overexpressed in 293T cells, an enrichment of SALL4 as well as HDAC2 but a decreased H3 acetylation at this binding site were observed, which was correlated with a decreased Pten mRNA expression. It is likely that SALL4 recruits the NuRD complex in repressing Pten expression. If this model of the role of wt peptide is correct, then it could compete with endogenous SALL4 in recruiting NuRD to the binding site on Pten promoter. […] SNU-398 cells were treated with Scr or wt peptide and then evaluated for the Pten mRNA expression, as well as the status of HDAC2 binding and H3 acetylation at the Pten promoter region.
Then tested was whether this peptide could reverse the repressive effect of SALL4 on its target genes. The focus was onPTEN, since it is implicated in SALL4-mediated leukemogenesis (Yang et al., Blood, 112:805-813 (2008); Lu et al., PLoS One, 4:e5577 (2009)). In addition, it was previously reported that SALL4 could specifically bind to the PTEN promoter region in a chromatin immunoprecipitation (ChIP) assay (Lu et al., PLoS One, 4:e5577 (2009)). […] To test this possibility, SNU-398 cells were treated with scrambled or wild type peptide and subsequently evaluated for PTEN expression and H3 acetylation at the SALL4 binding site at the PTEN promoter region. […]

## H-MSRRKQAKPQHI-OH [wt peptide, MSRRKQAKPQHI]
HDAC1 and HDAC2; listed as wild type peptide
  HDAC1 and HDAC2 detected in peptide pull-down: easily detected
HDAC1 and HDAC2; listed as wt
  HDAC1 and HDAC2 detected in peptide pull-down: detected
HDAC
  HDAC activity of peptide pull-down complex: the most HDAC activity
PTEN promoter region; listed as Wild type peptide
  H3 acetylation at the PTEN promoter region: increased H3 acetylation
PTEN promoter region; listed as Wt
  H3 acetylation at the PTEN promoter region: increased H3 acetylation
PTEN promoter region; listed as wild type peptide
  H3 acetylation at the PTEN promoter region: increased H3 acetylation markers

## Scr peptide: same 12 amino acids as the wt peptide, but in a scrambled sequence; negative control (SRMRQKIHPKIQ) [reference compound]
HDAC1 and HDAC2
  HDAC1 and HDAC2 detected in peptide pull-down: never
HDAC1 and HDAC2; listed as scrambled peptide
  HDAC1 and HDAC2 detected in peptide pull-down: undetectable
HDAC
  HDAC activity of peptide pull-down complex: no HDAC activity
PTEN promoter region
  H3 acetylation at the PTEN promoter region: not observed
